Legend:
[1] = biological target: T1, AtGID1b (Arabidopsis thaliana, UniProt Q9LYC1); assay: Competitive ability of GA in AtGID1-GA binding (AtGID1b)
T1 construct: made in house; host or cells: E. coli
T1 sequence (Q9LYC1 1-358): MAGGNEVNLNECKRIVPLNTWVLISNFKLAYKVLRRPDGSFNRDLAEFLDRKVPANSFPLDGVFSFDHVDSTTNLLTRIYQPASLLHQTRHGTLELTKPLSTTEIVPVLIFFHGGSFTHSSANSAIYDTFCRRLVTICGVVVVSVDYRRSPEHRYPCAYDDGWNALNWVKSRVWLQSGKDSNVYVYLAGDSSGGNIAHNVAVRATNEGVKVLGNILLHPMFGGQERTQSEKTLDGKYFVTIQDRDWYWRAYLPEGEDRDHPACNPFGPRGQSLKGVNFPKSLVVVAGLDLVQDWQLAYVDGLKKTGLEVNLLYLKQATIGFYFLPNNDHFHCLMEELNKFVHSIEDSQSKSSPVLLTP
Protocol: In the gibberellin-binding assay, [1,2,16,17-^3H4]16,17-dihydro-GA4 was used as a labeled GA4. In vitro GA-binding assays were carried out using previous methods with some modifications (Nakajima, M. et al., Biochem. Biophys. Res. Comm. 241, 782-786 (1997)). The purified recombinant GID1 protein (400 pmol) was dissolved in 300 μl of binding buffer [20 mM Tris-HCl (pH 7.6), 5 mM 2-mercaptoethanol, and 0.1 M NaCl], and incubated with 100 μl of ^3H4-16,17-dihydroGA4 (6 pmol) for two hours at 25° C., either in the absence of non-labeled GA4 (total binding) or in the presence of 833-fold excess non-labeled GA4 (total non-specific binding). Then, 0.1 ml of the reaction mixture was loaded onto a NAP-5 column (Amersham Biosciences, Piscataway, N.J.). The eluate of the binding buffer (0.6 ml) was discarded, the subsequent eluate (0.2 ml) was collected, and the radioactivity was measured. The specific binding activity, reflecting the number of displaceable GA binding sites, was calculated by subtracting the amount of nonspecific binding from the amount of total binding. The same as above can also be carried out for other GAs.
Specifically, the coding region of the AtGID1 gene was amplified by PCR using specific primers designed based on the full-length cDNA sequence of the AtGID1 gene and having appropriate restriction sites at each end. After confirmation by sequence analysis, each cDNA fragment was ligated into pET32a vector (Novagen/Merck Biosciences, Madison, Wis., USA) or pGEX-4T-2 vector (Amersham Biosciences, Piscataway, N.J., USA; currently, a part of GE Healthcare). The production of recombinant proteins was confirmed by SDS-PAGE; vector cassettes were used as negative controls. GA binding assays were carried out similarly as described above using [1,2,16,17-^3H4]-16,17-dihydro-GA4 (4.55 TBq/mmol), which was custom-made by DuPont/NEN (Boston, Mass., USA). Non-labeled GA4 (1.25 mM) was used to measure non-specific binding. Saturation experiments for the kinetic analysis were carried out using ten concentrations of 16,17-dihydro-GA4 within the range of 25 to 1,500 nM. Competition assays were performed using [1,2,16,17-^3H4]-16,17-dihydro-GA4 at 15 nM and five concentrations of the non-labeled competitor. Recombinant RGA and GAI proteins were prepared using pET32a by a previously described method.
The ligand selectivity of each AtGID1 was examined by observing the competitive inhibition, by the addition of GA to the assay mixtures, of the binding between the recombinant proteins and tritiated 16,17-dihydro-GA4 (Table 2). The ligand selectivity was evaluated using the concentration of GA that inhibits 50% of the tracer (15 nM) binding (IC50 value).

[2] = biological target: T2, AtGID1a (Arabidopsis thaliana, UniProt Q9MAA7); assay: Scatchard analysis of GA binding of AtGID1a; details: equilibrium conditions
T2 construct: made in house; host or cells: E. coli
T2 sequence (Q9MAA7 1-345): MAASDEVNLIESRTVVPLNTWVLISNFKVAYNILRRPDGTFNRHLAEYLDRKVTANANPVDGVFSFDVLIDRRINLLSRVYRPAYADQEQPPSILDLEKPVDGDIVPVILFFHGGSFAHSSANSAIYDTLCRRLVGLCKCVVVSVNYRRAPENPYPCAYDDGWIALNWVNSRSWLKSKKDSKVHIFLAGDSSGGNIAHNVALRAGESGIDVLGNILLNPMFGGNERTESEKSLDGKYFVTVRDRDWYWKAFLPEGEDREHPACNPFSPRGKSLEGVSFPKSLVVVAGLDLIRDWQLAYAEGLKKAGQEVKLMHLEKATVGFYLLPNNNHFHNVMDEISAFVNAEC
Protocol: Panels A) to C) depict the results of Scatchard plot analyses for the GA binding of AtGID1. Results for AtGID1a (A), AtGID1b (B), and AtGID1c (C) are shown. The Kd values for 16,17-dihydro-GA4 was determined by adding various concentrations of GA to the assay mixture. Standard deviation (SD) was determined from these three independent measurements. The insets show time-course characteristics for the GA binding of AtGID1 and replacement (arrow) using an excess amount of non-labeled GA4 (0.125 mM). Panels D) to F) depict the GA binding activities of AtGID1 under different pH conditions. Results for AtGID1a (D), AtGID1b (E), and AtGID1c (F) are shown. The non-specific binding activity (UB) was determined by adding 0.125 mM GA4 to the assay solution, and this was subtracted from the total binding activity (B) to determine the specific binding activity (B-UB).
Specifically, the coding region of the AtGID1 gene was amplified by PCR using specific primers designed based on the full-length cDNA sequence of the AtGID1 gene and having appropriate restriction sites at each end. […]
The kinetics, ligand selectivity, and pH dependence of GA binding for the three AtGID1s identified as described above were examined using the tritiated GA4 derivative 16,17-dihydro-GA4. […] Furthermore, the kinetics of GA binding of each AtGID1 was analyzed under equilibrium conditions of GA at various concentrations.

CC1C[C@]23C[C@H]1CCC2[C@]12CC[C@H](O)[C@](C)(C(=O)O1)[C@H]2[C@@H]3C(=O)O (stereo partly drawn) [H2-GA4, 16,17-dihydro-GA4]
relative value, taking the value for GA4 as 100 [1]: (8) %
IC50 ([1]; tracer 15 nM, mean of at least two measurements): 400 nM
Kd [2]: 2000 nM
